Here are results for 37 compounds from US20120053165A1, “Novel Phenyl Imidazoles and Phenyl Triazoles As Gamma-Secretase Modulators” (Pfizer Inc., priority 2009, published 2012).
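Also: Aβ(1-42) released into conditioned medium captured by ELISA after roughly 24 h compound exposure, vehicle and inhibitor controls defining maximal and minimal inhibition.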

The test system of the first assay is production of amyloid beta protein Aβ(1-42) in human WT-APP overexpressing CHO cells. Particulars: Homo sapiens, CHO, read-out: Aβ 42 IC50.
As a reminder, the IC50 is the concentration at which inhibition is half-maximal. Regarding `COc1cc(C(=O)NCCc2ccc(Cl)cc2)ccc1-n1cnc(C)c1` [Example 103, N-[2-(4-chlorophenyl)ethyl]-3-methoxy-4-(4-methyl-1H-imidazol-1-yl)benzamide], the IC50 amounted to 698 nM.

The same assay, now with this note: Homo sapiens, CHO, read-out: Aβ 42 IC50, Geometric mean of 2-8 determinations; human WT-APP overexpressing CHO cells.
Turning to `COc1cc(C(=O)NCc2cccc(OC(F)(F)F)c2)ccc1-n1cnc(C)c1` [Example 55, 3-methoxy-4-(4-methyl-1H-imidazol-1-yl)-N-[3-(trifluoromethoxy)benzyl]benzamide], the IC50 was determined as 332 nM.
The same measure, in the same setting: the figure for `COc1cc(C(=O)NCc2ccc(F)c(Cl)c2)ccc1-n1cnc(C)c1` [Example 54, N-(3-chloro-4-fluorobenzyl)-3-methoxy-4-(4-methyl-1H-imidazol-1-yl)benzamide] is 326 nM.
Still for that read-out and setting: the figure for `COc1cc(C(=O)NCc2cc3cc(F)ccc3[nH]2)ccc1-n1cnc(C)c1` [Example 89, N-[(5-fluoro-1H-indol-2-yl)methyl]-3-methoxy-4-(4-methyl-1H-imidazol-1-yl)benzamide] is 570 nM.
With `COc1cc(C(=O)NCC2COc3ccccc3C2)ccc1-n1cnc(C)c1` (stereo not shown) [Example 122, N-(3,4-dihydro-2H-chromen-3-ylmethyl)-3-methoxy-4-(4-methyl-1H-imidazol-1-yl)benzamide], the IC50 is 976 nM.
Still for that read-out and setting: under `COc1ccc(OC)c(C2CCN(C(=O)c3ccc(-n4cnc(C)c4)c(OC)c3)C2)c1` (stereo not shown) [Example 109, 1-(4-{[3-(2,5-dimethoxyphenyl)pyrrolidin-1-yl]carbonyl}-2-methoxyphenyl)-4-methyl-1H-imidazole] stands 739 nM; under `COc1cc(C(=O)NCCCc2ccc(F)cc2)ccc1-n1cnc(C)c1` [Example 81, N-[3-(4-fluorophenyl)propyl]-3-methoxy-4-(4-methyl-1H-imidazol-1-yl)benzamide], 504 nM.
Still for that read-out and setting: under `COc1cc(C(=O)N[C@H]2CCc3ccc(Cl)cc32)ccc1-n1cnc(C)c1` [Example 129, N-[(1S)-6-chloro-2,3-dihydro-1H-inden-1-yl]-3-methoxy-4-(4-methyl-1H-imidazol-1-yl)benzamide] stands 605 nM; under `COc1cc(C(=O)NCc2cc(-c3ccc(F)cc3)on2)ccc1-n1cnc(C)c1` [Example 116, N-{[5-(4-fluorophenyl)isoxazol-3-yl]methyl}-3-methoxy-4-(4-methyl-1H-imidazol-1-yl)benzamide], 815 nM; under `COc1cc(C(=O)N2CC(c3cccc(Cl)c3)C2)ccc1-n1cnc(C)c1` [Example 18, 1-(4-{[3-(3-chlorophenyl)azetidin-1-yl]carbonyl}-2-methoxy-phenyl)-4-methyl-1H-imidazole], 660 nM.

The same assay, now with this note: Homo sapiens, CHO, read-out: Aβ 42 IC50, Single IC50 determination; human WT-APP overexpressing CHO cells.
`COc1cc(C(=O)N2CC(Oc3cc(Cl)ccc3Cl)C2)ccc1-n1cnc(C)c1` [Example 108, 1-(4-{[3-(2,5-dichlorophenoxy)azetidin-1-yl]carbonyl}-2-methoxyphenyl)-4-methyl-1H-imidazole]: the IC50 worked out at 738 nM.

The same assay, now with this note: Homo sapiens, CHO, read-out: GM Aβ 42B IC50, Geometric Mean of 2-8 Determinations; human WT-APP overexpressing CHO cells.
Take `COc1cc(C(=O)NCC(C)(O)c2ccc(Cl)cc2)ccc1-n1cnc(C)c1` (stereo not shown) [Example 2, N-[2-(4-chlorophenyl)-2-hydroxypropyl]-3-methoxy-4-(4-methyl-1H-imidazol-1-yl)benzamide]: the IC50 was found to be 942 nM.
The same measure, in the same setting: the figure for `COc1cc(C(=O)NCc2nnc(-c3cccc(Cl)c3)o2)ccc1-n1cnc(C)c1` [Example 5, N-{[5-(3-chlorophenyl)-1,3,4-oxadiazol-2-yl]methyl}-3-methoxy-4-(4-methyl-1H-imidazol-1-yl)benzamide] is 1460 nM; for `COc1cc(C(=O)NCc2cc(-c3cccc(Cl)c3)no2)ccc1-n1cnc(C)c1` [Example 4, N-{[3-(3-chlorophenyl)isoxazol-5-yl]methyl}-3-methoxy-4-(4-methyl-1H-imidazol-1-yl)benzamide] it is 330 nM.

The same assay, now with this note: read-out: Aβ 42 IC50; Geometric mean of 2-8 determinations; human WT-APP overexpressing CHO cells.
Take `COc1cc(C(=O)NCc2c(C)cccc2NS(C)(=O)=O)ccc1-n1cnc(C)c1` [Example 102, 3-methoxy-4-(4-methyl-1H-imidazol-1-yl)-N-{2-methyl-6-[(methyl-sulfonyl)amino]benzyl} benzamide]: the half-maximal inhibitory concentration (IC50) is 689 nM.
Still for that read-out and setting: under `COc1cc(C(=O)NC2(Cc3cccc(Cl)c3)CC2)ccc1-n1cnc(C)c1` [Example 92, N-[1-(3-chlorobenzyl)cyclopropyl]-3-methoxy-4-(4-methyl-1H-imidazol-1-yl) benzamide] stands 595 nM; under `COc1cc(C(=O)NC(C)COc2c(C)cccc2C)ccc1-n1cnc(C)c1` (stereo not shown) [Example 56, N-[2-(2,6-dimethyl-phenoxy)-1-methylethyl]-3-methoxy-4-(4-methyl-1H-imidazol-1-yl) benzamide], 337 nM; under `COc1cc(C(=O)NCc2cccc(C(=O)c3ccccc3)c2)ccc1-n1cnc(C)c1` [Example 42, N-(3-benzoyl-benzyl)-3-methoxy-4-(4-methyl-1H-imidazol-1-yl) benzamide], 316 nM.
Same read-out and setting: under `COc1cc(C(=O)NCC2(c3cccc(C(F)(F)F)c3)CCOCC2)ccc1-n1cnc(C)c1` [Example 19, 3-methoxy-4-(4-methyl-1H-imidazol-1-yl)-N-({4-[3-(tri-fluoromethyl)phenyl]tetrahydro-2H-pyran-4-yl}methyl) benzamide] stands 757 nM; under `COc1cc(C(=O)NC(CCC(C)C)c2ccc(C(F)(F)F)cc2)ccc1-n1cnc(C)c1` (stereo not shown) [Example 29, 3-methoxy-4-(4-methyl-1H-imidazol-1-yl)-N-{4-methyl-1-[4-(trifluoro-methyl)phenyl]pentyl} benzamide], 861 nM.
The same measure, in the same setting: under `COc1cc(C(=O)NCCc2c(C)[nH]c3ccccc23)ccc1-n1cnc(C)c1` [Example 117, 3-methoxy-4-(4-methyl-1H-imidazol-1-yl)-N-[2-(2-methyl-1H-indol-3-yl)ethyl] benzamide] stands 828 nM; under `COc1cc(C(=O)NC(C)Cc2ccc(C(F)(F)F)cc2)ccc1-n1cnc(C)c1` (stereo not shown) [Example 88, 3-methoxy-4-(4-methyl-1H-imidazol-1-yl)-N-{1-methyl-2-[4-(trifluoromethyl)phenyl]ethyl} benzamide], 561 nM; under `COc1cc(C(=O)NCc2nc(-c3ccc(C(F)(F)F)c(F)c3)no2)ccc1-n1cnc(C)c1` [Example 94, N-({3-[3-fluoro-4-(trifluoromethyl)phenyl]-1,2,4-oxadiazol-5-yl}methyl)-3-methoxy-4-(4-methyl-1H-imidazol-1-yl) benzamide], 610 nM.
`COc1cc(C(=O)NCC2CCc3ccccc3C2)ccc1-n1cnc(C)c1` (stereo not shown) [Example 113, 3-methoxy-4-(4-methyl-1H-imidazol-1-yl)-N-(1,2,3,4-tetrahydro-naphthalen-2-ylmethyl) benzamide]: the IC50 was determined as 784 nM.
Same read-out and setting: under `COc1cc(C(=O)NC2(c3ccc(Cl)cc3)CC2)ccc1-n1cnc(C)c1` [Example 78, N-[1-(4-chlorophenyl)cyclopropyl]-3-methoxy-4-(4-methyl-1H-imidazol-1-yl) benzamide] stands 488 nM; under `COc1cc(C(=O)NC(C)CCc2ccccc2)ccc1-n1cnc(C)c1` (stereo not shown) [Example 100, 3-methoxy-4-(4-methyl-1H-imidazol-1-yl)-N-(1-methyl-3-phenylpropyl) benzamide], 667 nM; under `COc1cc(C(=O)NCc2cccc(C(F)(F)F)c2)ccc1-n1cnc(C)c1` [Example 14, 3-methoxy-4-(4-methyl-1H-imidazol-1-yl)-N-[3-(trifluoro-methyl)benzyl] benzamide], 447 nM.
Same read-out and setting: under `COc1cc(C(=O)NC2CCc3ccccc3C2)ccc1-n1cnc(C)c1` (stereo not shown) [Example 114, 3-methoxy-4-(4-methyl-1H-imidazol-1-yl)-N-(1,2,3,4-tetrahydro-naphthalen-2-yl) benzamide] stands 793 nM.
The same measure, in the same setting: the figure for `COc1cc(C(=O)N(Cc2cc(-c3ccccc3)ccc2C)C2CC2)ccc1-n1cnc(C)c1` [Example 123, N-cyclopropyl-3-methoxy-N-[(4-methylbi-phenyl-3-yl)methyl]-4-(4-methyl-1H-imidazol-1-yl) benzamide] is 73 nM.
For `COc1cc(C(=O)N(Cc2cc(C(C)C)ccc2C)C2CC2)ccc1-n1cnc(C)c1` [Example 125, N-cyclopropyl-N-(5-isopropyl-2-methylbenzyl)-3-methoxy-4-(4-methyl-1H-imidazol-1-yl) benzamide], the IC50 is 185 nM.
For the compound `COc1cc(C(=O)NCCc2nc3cc(C)ccc3o2)ccc1-n1cnc(C)c1` [Example 121, 3-methoxy-N-[2-(5-methyl-1,3-benzoxazol-2-yl)ethyl]-4-(4-methyl-1H-imidazol-1-yl) benzamide], the 50% inhibitory concentration (IC50) came to 880 nM.
Same read-out and setting: the figure for `COc1cc(C(=O)NCC2CCCC2)ccc1-n1cnc(C)c1` [Example 47, N-cyclopentyl-methyl-3-methoxy-4-(4-methyl-imidazol-1-yl)-benzamide] is 1200 nM; for `COc1cc(C(=O)N(C)Cc2cccc(C(F)(F)F)c2)ccc1-n1cnc(C)c1` [Example 20, 3-methoxy-N-methyl-4-(4-methyl-1H-imidazol-1-yl)-N-[3-(trifluoro-methyl)benzyl] benzamide] it is 997 nM; for `COc1cc(C(=O)NCC2(c3ccccc3)CCCC2)ccc1-n1cnc(C)c1` [Example 27, 3-methoxy-4-(4-methyl-1H-imidazol-1-yl)-N-[(1-phenyl-cyclopentyl)methyl] benzamide] it is 175 nM.
The same measure, in the same setting: under “N-[3-(3- chlorophenyl) propyl]-3- methoxy-4-(4- methyl-1H- imidazol-1-yl) benzamide [Example 46]” stands 579 nM; under `COc1cc(C(=O)NCc2cccc(C(F)(F)F)c2F)ccc1-n1cnc(C)c1` [Example 77, N-[2-fluoro-3-(trifluoromethyl)benzyl]-3-methoxy-4-(4-methyl-1H-imidazol-1-yl) benzamide], 481 nM.
Take `COc1cc(C(=O)NCc2ccc(F)c(C(F)(F)F)c2)ccc1-n1cnc(C)c1` [Example 66, N-[4-fluoro-3-(trifluoromethyl)benzyl]-3-methoxy-4-(4-methyl-1H-imidazol-1-yl) benzamide]: the IC50 was 410 nM.
